Assay results published in ChEMBL document CHEMBL5576082, “Minor Cannabinoids as Inhibitors of Skin Inflammation: Chemical Synthesis and Biological Evaluation” (J Nat Prod, 2024).
Calls of active or inactive are those of the source. The calls are words filed in the database; no cut-off is given here.

What was measured:
[1] = test system: HaCaT; assay: Antiinflammatory activity against human HaCaT cells assessed as inhibition of TNF-alpha-induced IL-8 protein expression after 6 hrs by ELISA; type: functional, cell-based
[2] = Inhibition of TNF-alpha-induced NFkappaB (unknown origin) transcription in human HaCaT cells transiently transfected with NFkappaB-LUC after 6 hrs by luminescence based spectrophotometric assay; type: cell-based
[3] = test system: HaCaT; assay: Antiinflammatory activity against human HaCaT cells assessed as inhibition of TNF-alpha-induced IL-8 protein expression at 5 uM after 6 hrs by ELISA relative to control; type: functional
[4] = test system: HaCaT; assay: Cytotoxicity against human HaCaT cells assessed as reduction in cell viability at 5 uM after 24 hrs by MTT assay; type: toxicity, cell-based
[5] = test system: HaCaT; assay: Inhibition of TNF-alpha-induced NFkappaB (unknown origin) transcription in human HaCaT cells transiently transfected with NFkappaB-LUC at 5 uM after 6 hrs by luminescence based spectrophotometric assay; type: cell-based

| Structure (SMILES) | IC50 [1] [nM] | IC50 [2] [nM] | inhibition at 5 µM [3] [%] | Activity [4] | inhibition [5] | inhibition [3] |
| --- | --- | --- | --- | --- | --- | --- |
| CCCCCc1cc(O)c(C/C=C(\C)CCC=C(C)C)c(O)c1 [CANNABIGEROL] | > 5000 | 2510 | ~40 | – | – | – |
| CCCCc1cc2c(c(O)c1C(=O)O)CC[C@@](C)(CCC=C(C)C)O2 | – | – | – | Non-Toxic | Active | inactive |
| CCCCc1cc2c(c(O)c1C(=O)OC)CC[C@@](C)(CCC=C(C)C)O2 | 1580 | 4230 | 100 | Non-Toxic | Active | – |
| CCCCc1cc(O)c(C/C=C(\C)CCC=C(C)C)c(O)c1C(=O)OC | 530 | 600 | 100 | Non-Toxic | 100% | – |
| C=C(C)[C@@H]1CCC(C)=C[C@H]1c1c(O)cc(CCCCC)cc1O | – | – | – | – | – | inactive |
| CCCCc1cc2c3c(c1)O[C@@]1(C)CCC([C@@H]3C1)C(C)(C)O2 (some centres not stated) | – | – | – | Non-Toxic | inactive | inactive |
| CCCc1cc(O)c(C/C=C(/C)CCC=C(C)C)c(O)c1 | – | – | – | Non-Toxic | Active | inactive |
| CCCCc1cc(O)c2c(c1)O[C@](C)(CCC=C(C)C)CC2 | 1060 | 3110 | 100 | Non-Toxic | 100% | – |
| CCCc1cc2c3c(c1)O[C@@]1(C)CCC([C@@H]3C1)C(C)(C)O2 (some centres not stated) | – | – | – | Non-Toxic | inactive | inactive |
| CCCc1cc(O)c(C/C=C(\C)CCC=C(C)C)c(O)c1 | – | – | – | Non-Toxic | Active | inactive |
| CCCc1cc(O)c2c(c1)O[C@](C)(CCC=C(C)C)CC2 | – | – | – | Non-Toxic | Active | inactive |
| CCCCc1cc(O)c(C/C=C(/C)CCC=C(C)C)c(O)c1 | 870 | 2800 | 100 | Non-Toxic | 100% | – |
| CCCCc1cc(O)c(C/C=C(\C)CCC=C(C)C)c(O)c1 | 820 | 2360 | 100 | Non-Toxic | 100% | – |
